# Laboratory results published in patent publication US20060148744A1, “Use of cis-epoxyeicosantrienoic acids and inhibitors of soluble epoxide hydrolase to reduce damage from stroke” (priority 2004, published 2006).
# Columns and labels:
# [1] = rat, in vivo, po
# Protocol: The sEH inhibitor, adamantyl dodecanoic acid (AUDA) was administered orally to six-week-old male stroke prone spontaneously hypertensive rats (“SPSHR”).
# [2] = test system: stroke prone spontaneously hypertensive rats; assay: Cerebral ischemia by middle cerebral artery occlusion (intralumenal suture), infarct size by TTC staining; format: in vivo, rat; conditions: SPSHR, six weeks oral treatment, six hours post MCA occlusion, n=6, p<0.01 vs. vehicle
# Protocol: After six weeks of treatment, cerebral ischemia was induced by middle cerebral artery occlusion using the intralumenal suture occlusion technique. Rats were anesthetized with sodium pentobarbital (50 mg/kg IP) and body temperature was maintained at 37° C. using a microprocessor-controlled heating pad and a rectal temperature probe. The skin over the skull was retracted and the bone was thinned using a low speed drill. A laser Doppler flow probe (Perimed) was glued to the skull 2 mm posterior and 6 mm lateral to the bregma to allow for confirmation of middle cerebral artery (“MCA”) occlusion. The MCA was then occluded using the thread occlusion model as described by Zea Longa et al. “Reversible middle cerebral artery occlusion without craniotomy in rats”, Stroke 20:84-91 (1989). The common carotid artery was exposed by a midline incision and the pterygopalatine artery was ligated and the branches of the external carotid artery were cauterized. A 3-0 monofilament thread with a rounded tip was introduced into the external carotid artery in a retrograde fashion. […] Digital images of the brain slices were produced and the infarct volume was analyzed using a computerized image analysis system (NIH image, version 1.55). The percent of the hemisphere infarcted was measured using the Swanson equation to account for cerebral edema. […]
# [3] = Systolic blood pressure in treated SPSHR; format: in vivo, rat; conditions: SPSHR treated with AUDA
# Text: This difference in infarct size occurred independently of changes in systolic blood pressure (193±2 vs. 197±6 mm Hg, AUDA vs. vehicle).
# sEH = target: T1, sEH (Homo sapiens, UniProt P34913); assay: Inhibition of sEH; format: biochemical; conditions: result in words
# T1 sequence (P34913 1-555): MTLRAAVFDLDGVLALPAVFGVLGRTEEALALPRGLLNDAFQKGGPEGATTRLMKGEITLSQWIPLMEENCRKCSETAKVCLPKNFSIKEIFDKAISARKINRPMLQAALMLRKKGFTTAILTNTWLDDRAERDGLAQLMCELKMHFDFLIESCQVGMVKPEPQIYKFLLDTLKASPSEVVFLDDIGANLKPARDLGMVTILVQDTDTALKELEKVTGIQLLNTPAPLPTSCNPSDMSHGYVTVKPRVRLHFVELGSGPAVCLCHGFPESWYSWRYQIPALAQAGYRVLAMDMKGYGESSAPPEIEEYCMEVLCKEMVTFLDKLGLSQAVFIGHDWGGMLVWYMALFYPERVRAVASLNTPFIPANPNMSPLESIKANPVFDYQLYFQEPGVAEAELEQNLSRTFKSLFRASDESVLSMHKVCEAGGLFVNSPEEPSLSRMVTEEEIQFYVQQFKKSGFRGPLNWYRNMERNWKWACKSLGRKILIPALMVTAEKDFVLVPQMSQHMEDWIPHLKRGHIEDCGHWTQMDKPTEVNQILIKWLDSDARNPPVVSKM
# Text: Any of a number of standard assays for determining epoxide hydrolase activity can be used to determine inhibition of sEH. For example, suitable assays are described in Gill, et al., Anal Biochem 131, 273-282 (1983); and Borhan, et al., Analytical Biochemistry 231, 188-200 (1995)). Suitable in vitro assays are described in Zeldin et al., J Biol. Chem. 268:6402-6407 (1993). Suitable in vivo assays are described in Zeldin et al., Arch Biochem Biophys 330:87-96 (1996). […]
# The enzyme also can be detected based on the binding of specific ligands to the catalytic site which either immobilize the enzyme or label it with a probe such as dansyl, fluoracein, luciferase, green fluorescent protein or other reagent. […] The enzyme also can be detected based on the generation of fluorescent products following the hydrolysis of the epoxide. […]
# Metabolic stability = format: in vitro ADME; conditions: result in words
Plasma levels of AUDA at the end of the treatment period [1] [ng/mL],urinary AUDA excretion rate [1] [ng/day],Compound,% hemisphere infarcted [2] [% hemisphere infarcted],systolic blood pressure [3] [mm Hg],activity as an inhibitor of sEH (sEH),metabolic stability (Metabolic stability)
5.03 ± 0.32,111.6 ± 24.4,adamantyl dodecanoic acid [AUDA],35.9±3.83,193±2,,
,,"CCCCCCCCCCCCNC(=O)NC12CC3CC(CC(C3)C1)C2 [ADU, N-Adamantyl-N′-dodecyl urea]",,,particularly high activity on sEH,metabolically stable
